Data on 3 molecules can be found in patent US20140080847A1, “Compositions and Methods for Affecting Energy Balance, Body Composition, Fitness, and Well-Being” (OEJM Products Holdings, LLC, priority 2012, published 2014).

Data set [1] relates to cats and dogs. The settings on record: early animal studies; cited from earlier work.
The test system of data set [2] is human(s). Briefly: Comparative effects of 1,3-DMPA and 1,4-DMPA compounds in humans (self-administration). It is filed as in vivo. As to the method: The compounds 1,3-DMPA, racemic 1,4-DMPA, (R)-1,4-DMPA, and (S)-1,4-DMPA were administered to human(s). A non-smoking person of normal weight ingested 40 mg 1,3-DMPA as part of a dietary supplement (dietary ingredients: arginine α-ketoglutarate, creatine monohydrate, β-alanine, caffeine, 1,3-dimethylpentylamine HCL, schisandra cinensis (berry) extract (standardized for schizandrol A)); powder form), self-administered daily for at least seven days. […] To compare the effects of 1,3-DMPA to the effects of 1,4-DMPA, this individual later ingested 1,4-DMPA (racemic) for at least seven days at a dose of 60 mg per day, combined with 250 mg caffeine.
To compare the effects of (R)-1,4-DMPA, and (S)-1,4-DMPA, the individual described above ingested each enantiomer separately. Starting dose was ˜20 mg per day, which was increased to 30 mg per day if treatment was continued. Doses were combined with 250 mg caffeine as described above. […] The dose was increased to 30 mg per day; the total duration of treatment was at least three weeks. […] Ingestion of (S)-1,4-DMPA (25-30 mg per day) with caffeine produced different effects. […] The individual ceased self-administering (S)-1,4-DMPA after several days of experiencing the latter effects.

Data set [3] deals with New Zealand white rabbits. Briefly: Acute toxicity and tolerance (MTD) of a single oral dose in New Zealand white rabbits. It is filed as in vivo, rabbit. As to the method: (§1) The maximum tolerated dose (MTD) of orally administered 1,3-DMPA and 1,4-DMPA was determined in New Zealand white rabbits and Wistar rats.
(§2) Determination of MTD of orally-administered 1,3-DMPA in New Zealand white rabbits: Twenty-four rabbits (twelve male, twelve female) were quarantined for at least seven days and then were randomly divided into four groups with six animals (3 male and 3 female) in each group. […] Animals were observed daily for fourteen days following administration. Each animal's body weight, food intake, mortality, and natural orifices were monitored. Clinical observations included skin condition, gait, movement, neurological disorders, eye condition, feces, convulsions, tremors, activity rate, restlessness, grooming, sleep, aggressiveness, salivation, diarrhea, respiration, appetite, thirst and urine conditions. Other observations included fur condition, mucous membranes, presence or absence of secretions and excretions and autonomic activity, lacrimation, piloerection, pupil size, posture, arched back, distended abdomen, fur, mucous membrane, presence or absence of secretions, tail elevation, motor activity, urination and defecation, and response to handling as well as the presence of clonic or tonic movements, repetitive circling, bizarre behavior, self-mutilation and walking backwards. At the conclusion of the fourteen day monitoring period, gross pathological examination was carried out on all animals. Heart, lung, liver, kidneys, spleen, stomach, large intestine, small intestine, brain and skin were examined for any macroscopic lesions.
(§3) Determination of MTD of orally-administered 1,4-DMPA in New Zealand white rabbits: Thirty rabbits (fifteen male, fifteen female) were quarantined for at least seven days and then were randomly divided into five groups with six animals (3 male and 3 female) in each group. […] Animals were observed daily for fourteen days following administration. Each animal's body weight, food intake, mortality, and natural orifices were monitored. As above, clinical observations included observation of natural orifices for any abnormal secretions and monitoring for the presence or absence of secretions and excretions, monitoring of mucous membranes, fur and skin condition, mortality, gait, posture, arched back, distended abdomen, movement and motor activity, neurological disorders, eye condition and pupil size, feces, convulsions, tremors, tail elevation, activity rate, restlessness, grooming, sleep, aggressiveness, salivation, diarrhea, respiration, appetite, thirst and urine conditions, autonomic activity, lacrimation, piloerection, response to handling, as well as the presence of clonic or tonic movements, repetitive circling, bizarre behavior, self-mutilation and walking backwards. At the conclusion of the fourteen day monitoring period, gross pathological examination was carried out on all animals. Heart, lung, liver, kidneys, spleen, stomach, large intestine, small intestine, brain and skin were examined for any macroscopic lesions.

Assay in data set [4]: as above
It is filed as in vivo, rabbit. The settings on record: both sexes, New Zealand white, in vivo; rabbit, single oral dose. As to the method: as §1, §2, §3

Data set [5] can be described thus: Acute toxicity and tolerance (MTD) of a single oral dose in Wistar rats. The data set is classed as in vivo, rat. The conditions noted are these: both sexes, Wistar, in vivo; rat, single oral dose. As to the method: as §1
(§4) Determination of MTD of orally-administered 1,3-DMPA in Wistar rats: The same general methods and procedures were followed as described above. This study involved forty animals randomly divided into four groups of ten animals (five male, five female) in each group. […] The MTD of a single oral dose of 1,3-DMPA was determined to be between 125 mg/kg and 250 mg/kg.
as §4, with “1,4-DMPA” for “1,3-DMPA”, “group. The groups were treated as follows: Group I (vehicle control—water), Group II (75 mg/kg), Group III (150 mg/kg), and Group IV (300 mg/kg). […] Gross pathological changes were not observed in the treated groups during necropsy.” for “group.”, “150” for “125”, “300 mg/kg in Wistar rats.” for “250 mg/kg.”

The test system of data set [6] is Wistar rats. The description is as above. It is filed as in vivo, rat. As to the method:
as §1, §4
as §4, with “1,4-DMPA” for “1,3-DMPA”, “group. The groups were treated as follows: Group I (vehicle control—water), Group II (75 mg/kg), Group III (150 mg/kg), and Group IV (300 mg/kg). […] Gross pathological changes were not observed in the treated groups during necropsy.” for “group.”, “150” for “125”, “300 mg/kg in Wistar rats.” for “250 mg/kg.”

The mark [7] stands for this setting: male, 60 mg per day with 250 mg caffeine, at least seven days.
[8] abbreviates: male, 20 then 30 mg per day with 250 mg caffeine, at least three weeks.
Setting [9] is: male, starting dose 20 mg per day with 250 mg caffeine.
The mark [10] stands for this setting: male, 25-30 mg per day with caffeine, several days.

What is called MTD is the largest dose that counted as tolerated. Read a high MTD as a wide tolerated range. What is called LD50 is the dose expected to kill half of the subjects tested. The low end stands for a more toxic substance, the high end for a less toxic substance. Regarding `CC(C)CCC(C)N` (racemic) [1,4-DMPA, 1,4-dimethylpentylamine], the vasopressor activity entry in data set [1] is “possesses vasopressor activity”. In data set [2] (setting [7]), the appetite entry is listed as “decreased appetite”, the “effect on heart rate compared with prior 1,3-DMPA” value is “reduced effect on heart rate”, the “jitteriness or anxiousness compared with prior 1,3-DMPA” value is “noticeably reduced feelings of jitteriness or anxiousness” and the “level of CNS stimulation compared with 1,3-DMPA” value is “about the same level of CNS stimulation”. Further, in data set [2] (setting [7]), the mood and vigor entry is “improved mood and vigor”; the “nature of the stimulatory effect” value was “increased focus and alertness and reduced fatigue”; the physical performance result is on record as “improved physical performance”. Besides, the fat mass entry in data set [2] (reports of individuals ingesting the compound) is “reduction in fat mass”. The clinical signs result in data set [3] (rabbit, 250 mg/kg and 350 mg/kg oral, all animals) is “tremors and tachycardia”. Also, the body weight result in data set [3] (rabbit, 350 mg/kg oral (Group V), study period) is on record as “variation in body weight”. Further, the “gross pathology of the animal that died” value in data set [3] (rabbit, 350 mg/kg oral, died after 36 hours) was “dark reddish discoloration of the lung suggesting congestion, slight reddish discoloration of the trachea, and mild petechial hemorrhages in the liver”. Besides, the mortality entry in data set [3] (rabbit, 350 mg/kg oral, six animals per group, within 36 hours) was “one mortality”. Further, the mortality entry in data set [3] (rabbit, 50, 125, 250 mg/kg oral) is recorded as “No mortalities”. Moreover, the mean body weight entry in data set [3] (rabbit, 50, 125, 250 mg/kg oral (all groups except Group V), 14 days, vs vehicle control) is listed as “consistent increase”. Also, the mean food intake entry in data set [3] (rabbit, all treatment groups 50-350 mg/kg, first 48 hours post treatment, vs control) is recorded as “reduced”. The gross pathological changes entry in data set [3] (rabbit, treated groups 50-350 mg/kg, except the animal that died) was “No gross pathological changes were observed”. Besides, the “toxicity and tolerance compared with 1,3-DMPA” value in data set [3] (single-dose rat and rabbit studies) was “less toxic and better tolerated than 1,3-DMPA”. Moreover, in data set [4], the MTD at 14 days was in the range of 250 to 350 mg/kg. In data set [5], this molecule came in with a median lethal dose (LD50) at 14 days of 465 mg/kg and an MTD at 14 days of 150 to 300 mg/kg. Also, the additional clinical signs result in data set [6] (rat, 150 mg/kg and 300 mg/kg oral) was “Tremors and convulsions”. In addition, the “examination of the animals that died” value in data set [6] (rat, 300 mg/kg oral, died 4.5 hours post dosing) was “right median lobe consolidation and red foci on lungs, mild reddish discoloration of adrenals and spleen, mild enlargement of the spleen and glandular mucosa of the stomach showing hyperemia”. In addition, the mortality entry in data set [6] (rat, 300 mg/kg oral, ten animals per group, within 4.5 hours) is given as “Four mortalities”. Further, in data set [6] (rat, 75, 150, 300 mg/kg oral, study period, vs control), the mean body weight result is given as “consistently increased”. Moreover, in data set [6] (rat, 75 and 150 mg/kg oral), the mortality entry is listed as “No mortalities”. The clinical signs entry in data set [6] (rat, all treated animals 75, 150, 300 mg/kg oral) was “piloerection, tail elevation, nasal discharge, tachycardia and hyperactivity”. The “gross pathological changes at necropsy” value in data set [6] (rat, treated groups 75-300 mg/kg oral) was “not observed”. Also, in data set [6] (rat, treatment groups 75, 150, 300 mg/kg oral, first 48 hours post administration), the feed consumption entry is reported as “consume less feed”.

`CC(C)CC[C@@H](C)N` [(R)-1,4-DMPA, (R)-1,4-dimethylpentylamine]: in data set [2] (setting [8]), the CNS stimulation result is “CNS stimulation, including feelings of alertness, focus, and reduced fatigue”; the appetite entry is listed as “decreased appetite”; the “heart rate, jitteriness, nervousness, anxiety” value is “not associated with a noticeable increase in heart rate, jitteriness, nervousness, or anxiety”; the mood entry is “improved mood”. The physical performance result in data set [2] (setting [8]) was “improved physical performance”. In data set [2] (setting [9]), the CNS stimulant effect entry is “produced CNS stimulant effect” and the “jitteriness or pressor effect” value was “little or no jitteriness or pressor effect”.

As to `CC(C)CC[C@H](C)N` [(S)-1,4-DMPA, (S)-1,4-dimethylpentylamine], in data set [2] (setting [10]), the “alertness and focus in comparison to (R)-1,4-DMPA” value was “lessened alertness and focus”; the “heart rate and restlessness in comparison to (R)-1,4-DMPA” value is “increased heart rate and restlessness”.
